Assay results as given in publication PMC3237348, “Chemical Genomics Profiling of Environmental Chemical Modulation of Human Nuclear Receptors” (Environmental Health Perspectives, 2011).

Experiments:
ERα = target: T1, ERα (Homo sapiens, UniProt P03372); test: GAL-LBD beta-lactamase reporter qHTS, HEK […], […] nm ratio; assay type: cell-based
T1 construct: gene ESR1; GeneBLAzer bla HEK 293T reporter line (Invitrogen)
T1 sequence (P03372 311-547 limits assumed): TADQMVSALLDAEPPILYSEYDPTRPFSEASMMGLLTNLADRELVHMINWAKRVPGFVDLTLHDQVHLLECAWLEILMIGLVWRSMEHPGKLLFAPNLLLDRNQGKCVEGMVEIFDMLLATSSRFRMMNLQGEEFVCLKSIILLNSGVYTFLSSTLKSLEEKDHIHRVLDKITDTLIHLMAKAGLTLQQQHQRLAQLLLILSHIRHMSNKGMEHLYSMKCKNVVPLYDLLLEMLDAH

PPARδ [1] = target: T2, PPARδ (Homo sapiens, UniProt Q03181); test: as above; assay type: cell-based
T2 construct: gene PPARD; GeneBLAzer bla HEK 293T reporter line (Invitrogen)
T2 sequence (Q03181 139-441 limits assumed): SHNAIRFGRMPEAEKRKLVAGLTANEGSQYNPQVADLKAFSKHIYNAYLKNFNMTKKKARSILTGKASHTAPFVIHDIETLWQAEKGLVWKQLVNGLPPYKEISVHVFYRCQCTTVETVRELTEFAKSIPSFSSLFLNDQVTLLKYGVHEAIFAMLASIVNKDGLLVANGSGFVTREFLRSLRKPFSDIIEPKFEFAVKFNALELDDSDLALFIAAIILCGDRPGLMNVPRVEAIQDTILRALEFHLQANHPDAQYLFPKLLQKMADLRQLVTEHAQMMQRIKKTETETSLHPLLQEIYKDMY

RXRα = target: T3, RXRα (Homo sapiens, UniProt P19793); test: as above; assay type: cell-based
T3 construct: gene RXRA; GeneBLAzer bla HEK 293T reporter line (Invitrogen)
T3 sequence (P19793 225-462 limits assumed): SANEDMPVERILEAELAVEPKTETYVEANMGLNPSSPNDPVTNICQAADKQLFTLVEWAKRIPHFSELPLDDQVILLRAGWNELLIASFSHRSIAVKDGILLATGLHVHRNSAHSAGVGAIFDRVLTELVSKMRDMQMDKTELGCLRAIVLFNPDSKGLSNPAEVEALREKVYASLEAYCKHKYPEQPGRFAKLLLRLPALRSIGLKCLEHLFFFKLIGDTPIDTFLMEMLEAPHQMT

PPARγ [2] = target: T4, PPARγ (Homo sapiens, UniProt P37231); test: as above; assay type: cell-based
T4 construct: gene PPARG; GeneBLAzer bla HEK 293T reporter line (Invitrogen)
T4 sequence (P37231 238-505 limits assumed): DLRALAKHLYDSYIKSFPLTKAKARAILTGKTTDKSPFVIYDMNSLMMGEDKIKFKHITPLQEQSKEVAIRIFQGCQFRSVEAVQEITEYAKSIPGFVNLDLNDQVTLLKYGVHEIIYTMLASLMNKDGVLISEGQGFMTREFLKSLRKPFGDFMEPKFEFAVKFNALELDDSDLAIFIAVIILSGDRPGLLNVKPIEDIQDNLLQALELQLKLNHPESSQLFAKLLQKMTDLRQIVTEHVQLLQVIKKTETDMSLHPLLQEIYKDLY

LXRβ = target: T5, LXRβ (Homo sapiens, UniProt P55055); test: as above; assay type: cell-based; details: agonist mode; […]-18 h at […] °C; unreliable
T5 construct: gene NR1H2; GeneBLAzer bla HEK 293T reporter line (Invitrogen)
T5 sequence (P55055 222-460 limits assumed): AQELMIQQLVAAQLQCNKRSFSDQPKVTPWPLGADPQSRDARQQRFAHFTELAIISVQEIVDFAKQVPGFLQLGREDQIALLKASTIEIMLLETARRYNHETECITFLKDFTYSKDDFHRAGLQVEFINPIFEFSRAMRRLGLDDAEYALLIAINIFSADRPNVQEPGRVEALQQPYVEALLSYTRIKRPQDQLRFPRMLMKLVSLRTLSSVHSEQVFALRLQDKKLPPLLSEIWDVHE

PPARγ [3] = target: T4, PPARγ; test: as above; assay type: cell-based; remark: listed apart in the source
PPARγ [4] = target: T4, PPARγ; test: cell-based; set-up: species or system HEK 293T; GeneBLAzer GAL4-LBD beta-lactamase reporter, antagonist mode with added agonist, 460/530 nm FRET ratio; details: with rosiglitazone 0.05 uM; antagonist mode, known agonist added; read-out: Control Titration EC50/IC50 (µM), antagonist mode
Source text: (§1) β-Lactamase reporter gene assay and qHTS. […] All cell culture reagents were obtained from Invitrogen.

PPARδ [5] = target: T2, PPARδ; test: cell-based; set-up: species or system HEK 293T; GeneBLAzer GAL4-LBD beta-lactamase reporter, antagonist mode with added agonist, 460/530 nm FRET ratio; details: with L165041 0.5 uM; antagonist mode, known agonist added; read-out: Control Titration EC50/IC50 (µM), antagonist mode
Source text: as §1

GR = target: T6, GR (Homo sapiens, UniProt P04150); test: GAL-LBD beta-lactamase reporter qHTS, HEK […], […] nm ratio; assay type: cell-based
T6 construct: gene NR3C1; GeneBLAzer bla HEK 293T reporter line (Invitrogen)
T6 sequence (P04150 521-777 limits assumed): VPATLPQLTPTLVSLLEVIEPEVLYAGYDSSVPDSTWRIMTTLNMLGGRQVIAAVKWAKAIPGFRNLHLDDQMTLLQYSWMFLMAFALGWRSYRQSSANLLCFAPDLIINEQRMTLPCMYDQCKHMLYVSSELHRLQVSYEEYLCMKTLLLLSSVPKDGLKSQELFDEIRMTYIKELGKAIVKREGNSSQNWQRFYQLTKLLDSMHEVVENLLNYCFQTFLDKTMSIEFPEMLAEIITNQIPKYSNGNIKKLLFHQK

PPARδ [6] = target: T2, PPARδ; test: cell-based; set-up: species or system HEK 293T; GeneBLAzer GAL4-LBD beta-lactamase reporter, agonist mode, 460/530 nm FRET ratio; details: agonist mode; read-out: Control Titration EC50/IC50 (µM), agonist mode
Source text: as §1

CCCc1c(-c2ccc(O)cc2)nn(-c2ccc(O)cc2)c1-c1ccc(O)cc1 [1,3,5-tris(4-Hydroxyphenyl)-4-propyl-1H-pyrazole] gave an EC50 (ERα) of 100 nM.

In the case of CCCCCCCCCCCCCCC(Br)C(=O)O (centres unmarked) [2-Bromohexadecanoic acid], the EC50 (PPARδ [1]) is reported as 28200 nM.

For CC1(C)CCC(C)(C)c2cc(C(=O)Nc3ccc(C(=O)O)cc3)ccc21 [AM-580], the EC50 (RXRα) was 620 nM.

In the case of CC(C)(c1ccc(OCC2CO2)cc1)c1ccc(OCC2CO2)cc1 (centres unmarked) [BADGE], the IC50 (PPARγ [2]; antagonist mode, nonsaturating agonist pre-added, […]-18 h at […] °C) is reported as 50100 nM.

For CC(C)CCC[C@@H](C)[C@H]1CC[C@H]2[C@@H]3CC=C4C[C@@H](O)CC[C@]4(C)[C@H]3CC[C@]12C [Cholesterol], the EC50 (LXRβ) was 39810 nM.

For CC(C)C[C@H](NC(=O)OCC1c2ccccc2-c2ccccc21)C(=O)O [Fmoc-l-leucine], the EC50 (PPARγ [3]) was 11200 nM.

O=C(Nc1ccccc1)c1cc([N+](=O)[O-])ccc1Cl [GW9662] showed an IC50 (PPARγ [2]) of 12600 nM and an IC50 (PPARγ [4]) of 0.011 µM.

Work on CC(C)c1ccc2c(c1)c(SC(C)(C)C)c(CC(C)(C)C(=O)O)n2Cc1ccc(Cl)cc1 [MK886] yielded an IC50 (PPARδ [5]) of 54 µM.

O=S(=O)(c1ccccc1)N(CC(F)(F)F)c1ccc(C(O)(C(F)(F)F)C(F)(F)F)cc1 [TO-901317] was tested, and the EC50 (LXRβ) was 250 nM.

With C/C(=C\c1ccc(C(=O)O)cc1)c1ccc2c(c1)C(C)(C)CCC2(C)C [TTNPB, (E)-4-[2-(5,6,7,8-tetrahydro-5,5,8,8-tetramethyl-2-naphthylenyl)-1-propenyl] benzoic acid] the EC50 (RXRα) was 710 nM.

With C[C@]12C=CC(=O)C=C1CC[C@H]1[C@@H]3C[C@@H](O)[C@](O)(C(=O)CO)[C@@]3(C)C[C@H](O)[C@@]12F [Triamcinolone] the EC50 (GR) was 110 nM.

Compound CCCc1c(OCCCOc2ccc(OCC(=O)O)cc2)ccc(C(C)=O)c1O [l-165,041] has an EC50 (PPARδ [6]) of 0.036 ± 0.006 µM and an EC50 (PPARδ [1]) of 90 nM.
